Values after ≈ are worked out from the molar mass of the structure shown. Active and inactive are the calls of the source. No cut-off for these calls is given here.
Assays:
Staphylococcus aureus [1] = assay: Antibacterial activity against vancomycin-resistant Staphylococcus aureus VRS1 harboring GyrA S84L and GrlA S80F mutant after 24 hrs by CLSI method; assay type: functional; conditions: VRS1, 24 h
Staphylococcus aureus [2] = assay: Antibacterial activity against vancomycin-resistant Staphylococcus aureus VRS5 harboring GyrA S84L, E88K and GrlA S80Y, E84G mutant after 24 hrs by CLSI method; conditions: VRS5, 24 h
Staphylococcus aureus [3] = assay: Antibacterial activity against vancomycin-resistant Staphylococcus aureus VRS7 harboring GyrA S84L and GrlA S80F mutant after 24 hrs by CLSI method; assay type: functional, organism-based
Staphylococcus aureus [4] = assay: Antibacterial activity against vancomycin-resistant Staphylococcus aureus VRS6 harboring GyrA S84L and GrlA S80F, E84G mutant after 24 hrs by CLSI method; assay type: functional; conditions: VRS6, 24 h
Staphylococcus aureus [5] = assay: Antibacterial activity against hospital acquired methicillin-resistant Staphylococcus aureus after 24 hrs by CLSI method; assay type: functional
Staphylococcus aureus [6] = assay: Antibacterial activity against vancomycin-intermediate Staphylococcus aureus after 24 hrs by CLSI method; assay type: functional
Staphylococcus aureus [7] = assay: Antibacterial activity against vancomycin-resistant Staphylococcus aureus VRS4 harboring GyrA S84L and GrlA S80F, E84K mutant after 24 hrs by CLSI method; assay type: functional, organism-based
Staphylococcus aureus [8] = assay: Antibacterial activity against vancomycin-resistant Staphylococcus aureus VRS2 harboring GyrA S84L and GrlA S80F mutant after 24 hrs by CLSI method; assay type: functional; conditions: VRS2, 24 h
Staphylococcus aureus [9] = assay: Antibacterial activity against quinolone-resistant Staphylococcus aureus after 24 hrs by CLSI method; assay type: functional
Staphylococcus aureus [10] = assay: Antibacterial activity against methicillin-susceptible Staphylococcus aureus after 24 hrs by CLSI method; assay type: functional
Staphylococcus aureus [11] = assay: Antibacterial activity against community acquired methicillin-resistant Staphylococcus aureus after 24 hrs by CLSI method; assay type: functional
Staphylococcus aureus [12] = assay: Antibacterial activity against vancomycin-resistant Staphylococcus aureus VRS3 harboring GyrA S84L and GrlA S80F, E84K mutant after 24 hrs by CLSI method; assay type: functional; conditions: VRS3, 24 h
[13] = AUC in human at 800 mg, iv qd after 24 hrs; assay type: ADME, organism-based; parameters: dose 800 mg, time < 24 hr, route intravenous; conditions: plasma
[14] = Ratio of AUC in human to MIC for Staphylococcus aureus after 24 hrs; assay type: functional
Staphylococcus aureus [15] = assay: microbe, parasite or virus in culture; conditions: Staphylococcus aureus, 32, 24 h
Description: Antibacterial activity against vancomycin-susceptible methicillin-resistant Staphylococcus aureus 32 harboring GyrA S84L and GrlA S80Y mutant after 24 hrs by CLSI method

Staphylococcus aureus [16] = assay: microbe, parasite or virus in culture; conditions: Staphylococcus aureus, 34, 24 h
Description: Antibacterial activity against vancomycin-susceptible methicillin-resistant Staphylococcus aureus 34 harboring GyrA S84L and GrlA S80F mutant after 24 hrs by CLSI method

Staphylococcus aureus [17] = assay: microbe, parasite or virus in culture; conditions: Mu3, 24 h
Description: Antibacterial activity against vancomycin-intermediate Staphylococcus aureus Mu3 harboring GyrA S84L and GrlA S80F mutant after 24 hrs by CLSI method

Staphylococcus aureus [18] = assay: Antibacterial activity against Staphylococcus aureus after 24 hrs by CLSI method; assay type: functional
Staphylococcus aureus [19] = assay: Antibacterial activity against vancomycin-intermediate Staphylococcus aureus Mu50 harboring GyrA S84L and GrlA S80F mutant after 24 hrs by CLSI method; assay type: functional; conditions: Mu50, 24 h

Compound | MIC (Staphylococcus aureus [1]) [µg/mL] | MIC (Staphylococcus aureus [2]) [µg/mL] | MIC (Staphylococcus aureus [4]) [µg/mL] | MIC50 (Staphylococcus aureus [5]) [µg/mL] | MIC90 (Staphylococcus aureus [5]) [µg/mL] | MIC50 (Staphylococcus aureus [6]) [µg/mL] | MIC90 (Staphylococcus aureus [6]) [µg/mL] | MIC (Staphylococcus aureus [8]) [µg/mL] | MIC50 (Staphylococcus aureus [9]) [µg/mL] | MIC90 (Staphylococcus aureus [9]) [µg/mL] | MIC50 (Staphylococcus aureus [10]) [µg/mL] | MIC90 (Staphylococcus aureus [10]) [µg/mL] | MIC50 (Staphylococcus aureus [11]) [µg/mL] | MIC90 (Staphylococcus aureus [11]) [µg/mL] | MIC (Staphylococcus aureus [12]) [µg/mL] | MIC50 (Staphylococcus aureus [18]) [µg/mL] | MIC90 (Staphylococcus aureus [18]) [µg/mL] | MIC (Staphylococcus aureus [19]) [µg/mL] | further results
C[C@H]1CCc2c(N3CCC(O)CC3)c(F)cc3c(=O)c(C(=O)O)cn1c23.N=C(N)NCCC[C@H](N)C(=O)O | 0.5 | 8 | 0.5 | 0.5 | 1 | 0.25 | 0.5 | 0.5 | 0.5 | 1 | 0.03 | 0.25 | 0.03 | 0.5 | 0.5 | 0.03 | 1 | 1 | Activity (Staphylococcus aureus [3]): Active; Activity (Staphylococcus aureus [7]): Active; AUC at 24 h [13]: 390 µg·h/mL; RatioAUC/MIC [14]: 58.5; MIC (Staphylococcus aureus [15]): 0.5 µg/mL; MIC (Staphylococcus aureus [16]): 0.5 µg/mL; MIC (Staphylococcus aureus [17]): 1 µg/mL
CN[C@H](CC(C)C)C(=O)N[C@H]1C(=O)N[C@@H](CC(N)=O)C(=O)N[C@H]2C(=O)N[C@H]3C(=O)N[C@H](C(=O)N[C@H](C(=O)O)c4cc(O)cc(O)c4-c4cc3ccc4O)[C@H](O)c3ccc(c(Cl)c3)Oc3cc2cc(c3O[C@@H]2O[C@H](CO)[C@@H](O)[C@H](O)[C@H]2O[C@H]2C[C@](C)(N)[C@H](O)[C@H](C)O2)Oc2ccc(cc2Cl)[C@H]1O [VANCOMYCIN] | 128 (≈ 88.3 µM) | 64 (≈ 44.2 µM) | 128 (≈ 88.3 µM) | 1 (≈ 0.69 µM) | 4 (≈ 2.76 µM) | 4 (≈ 2.76 µM) | 4 (≈ 2.76 µM) | 32 (≈ 22.1 µM) | 1 (≈ 0.69 µM) | 4 (≈ 2.76 µM) | 1 (≈ 0.69 µM) | 1 (≈ 0.69 µM) | 1 (≈ 0.69 µM) | 1 (≈ 0.69 µM) | 64 (≈ 44.2 µM) | 1 (≈ 0.69 µM) | 1 (≈ 0.69 µM) | 8 (≈ 5.52 µM) | –

— ChEMBL document CHEMBL1629623, “In vitro activity of the quinolone WCK 771 against recent U.S. hospital and community-acquired Staphylococcus aureus pathogens with various resistance types” (Antimicrob Agents Chemother, 2009)
